Data on 4 compounds can be found in patent EP0372889A1, “Doxorubicin solutions” (Bristol-Myers Squibb Company, priority 1988, dated 1990).

The format of data set [1] is physicochemical. The text has this:
It is also necessary for optimum stability of the solutions, especially at elevated temperatures which may be encountered at some time during the life of the product, e.g. during shipping, to utilize an antioxidant. We have tested a number of antioxidants including α-tocopherol, tert-butylhydroquinone (TBHQ), sodium formaldehyde bisulfite, butylated hydroxy anisole (BHA), butylated hydroxy toluene (BHT), sodium bisulfite and propyl gallate. […] This finding was disclosed and claimed in our EP-A-88111434.2 and in co-pending U.S. application Serial Number 246,602 filed September 20, 1988 and incorporated by reference herein in their entirety. […] Generally, an amount of sodium acetone bisulfite is employed in the range of about 0.1 to 20 mg/ml with about 2 mg/ml being most preferred.
Despite reports of potency losses of doxorubicin HCl solutions via photolytic degradation and adsorption to container walls, we have not noted any significant loss of potency due to container adsorption or sensitivity to normal room light with our solutions. Glass vials may conveniently be used as the container.
As an example of a stable non-aqueous solution of doxorubicin, 20 mg/ml of doxorubicin hydrochloride, 0.2 mg/ml citric acid (anhydrous), 2.0 mg/ml of sodium acetone bisulfite and a solvent medium consisting of deaerated propylene glycol/water (90:10 v/v) are added to a Type 1 flint vial, the vial is purged with nitrogen and then sealed with a suitable teflon-coated stopper. […] Substantially equivalent results are obtained when 1,2-dihydroxybutane and 1,3-dihydroxypropane solvent systems are used.

A short description of data set [2]: Solubility of doxorubicin HCl in non-aqueous solvents. The class given is physicochemical. Conditions: for solubility: organic solvent or mixture. On the procedure:
Doxorubicin HCl at room temperature has a solubility of less than 5 mg/ml in propylene glycol, 1,2-dihydroxybutane and 1,3-dihydroxypropane. […] Solubility of doxorubicin HCl can be increased to about 20 mg/ml in the above-mentioned solvents by addition of 5-10% (v/v) water.

The conditions of data set [3]: cited from earlier work.

Structures can show the parent of a compound that is named as a salt. Where two headings read alike, the source gives them in different places. Some results are limits rather than exact numbers.

As to `O=S(=O)(O)CO` [sodium formaldehyde bisulfite], the “stabilization of doxorubicin solutions by antioxidant” value (“stabilization” below) in data set [1] was “resulted in the desired stability”.
Turning to `CC(C)(C)c1cc(O)ccc1O` [tert-butylhydroquinone], in data set [1] (elevated temperatures as well as room temperature (25°C) or below), the “stabilization” value is recorded as “resulted in the desired stability”.
As to `Cc1c(C)c2c(c(C)c1O)CCC(C)(CCCC(C)CCCC(C)CCCC(C)C)O2` (stereo not drawn) [α-tocopherol], the “stabilization” value in data set [1] is given as “resulted in the desired stability”.
Take `COc1cccc2c1C(=O)c1c(O)c3c(c(O)c1C2=O)C[C@@](O)(C(=O)CO)C[C@@H]3O[C@H]1C[C@H](N)[C@H](O)[C@H](C)O1` [Doxorubicin HCl, doxorubicin hydrochloride]: the potency retained in data set [1] (20 mg/ml, 0.2 mg/ml citric acid, 2.0 mg/ml sodium acetone bisulfite, propylene glycol/water (90:10 v/v), nitrogen purged, 2 weeks at 40°C, 20160 min) was determined as 97.2%; in data set [1] (same solution, 4 weeks at 40°C, 40320 min), 93.4%; in data set [1] (same solution, 12 weeks at 40°C, 120960 min) it was 88.2%. Besides, the “acceptable shelf-life (≦10% potency loss)” value is “at least four” in data set [1] (same solution, 37°C) and “at least 18 months” in data set [1] (same solution, room temperature). Further, in data set [2] (glycerol formal, 2-pyrrolidinone and 1-methyl-2-pyrrolidinone), the “chemical stability of solutions” value is “chemically unstable”. Moreover, the solubility in data set [2] (glycerol formal, pyrrolidinones, glycerol formal, 2-pyrrolidinone and 1-methyl-2-pyrrolidinone, read-out: solution concentration produced) is not below 5 mg/mL; in data set [2] (glycols with 5-10% water, propylene glycol, 1,2-dihydroxybutane, 1,3-dihydroxypropane with addition of 5-10% (v/v) water, read-out: Solubility) it was approximately 20 mg/mL; in data set [2] (propylene glycol, butanediol, propanediol, room temperature, in propylene glycol, 1,2-dihydroxybutane and 1,3-dihydroxypropane, read-out: solubility), less than 5 mg/mL; in data set [2] (propylene glycol, butanediol, propanediol, same solvents, short-term (0.5-1 hour) warming (60-80°C) with vigorous stirring, read-out: solubility), approximately 10 mg/mL; in data set [2] (various organic solvents, with heating, polyethylene glycols, ethanol, benzyl alcohol, dimethylisosorbide, ethyl lactate, Solketol, Cremophors, Pluronics, read-out: Solubilities) it was less than 5 mg/mL. Further, in data set [2] (stored at 4°C to -20°C, seeding with crystalline doxorubicin HCl does not affect crystallization), the “physical stability of solution on cold storage” value was “remains in solution”. The potency loss result in data set [2] (upon short-term (0.5-1 hour) warming (60-80°C) in propylene glycol, 1,2-dihydroxybutane, 1,3-dihydroxypropane) was “no potency loss”. The stable in data set [3] (commercial preservative-free ready-to-use aqueous solution, 4°C, manufacturer) is reported as 18 months. Moreover, the “undesirable and potentially toxic degradation products” value in data set [3] (commercial ready-to-use aqueous solution, at the end of 18 months at 4°C, 788400 min) is listed as “up to 10%”. Also, in data set [3] (reconstituted solution in 0.9% NaCl solution, room temperature or 5°C, Ketcyhum, et al.), the remains stable result is “seven”.
